# Results reported in paper PMC12904578 (PLOS Pathogens, 2026).
# Entries after “also recorded” stand apart in the source; their conditions may differ.
# Columns and labels:
# [1] = system: VN1194 H5 HA from A/Vietnam/1194/2004 (H5N1); conditions: cited from earlier work
# H5FR H5 HA = format: binding, A/duck/France/161108h/2016 (H5N8)
# [2] = system: Sh2 H7 HA from A/Shanghai/2/2013 (H7N9); conditions: cited from earlier work
# [3] = molecular target: H5FR H5 HA ectodomain from A/duck/France/161108h/2016 (H5N8), polyhistidine-tagged (SPR form) (influenza A virus A/duck/France/161108h/2016 (H5N8)); test: SPR
molecule,measurement,setting,value
"CC(=O)NC1C(O)OC(CO)C(OC2OC(CO)C(O)C(OC3(C(=O)O)CC(O)C(NC(C)=O)C(C(O)C(O)CO)O3)C2O)C1O (centres unmarked) [3´-SLN, NeuAcα2–3Galβ1–4GlcNAc]",Siaα2–3Gal linkage configuration of 3´-SLN in VN1194 H5 HA,[1],trans configuration
NeuAcα2–3Galβ1–3GlcNAcβ1–3Galβ1–4Glc [LSTa],binding interactions in H5FR HA receptor binding site,H5FR H5 HA,"Sia-1, Gal-2 and GlcNAc-3 were ordered; also recorded: similarly to VN1194 HA or H5VN HA"
same,LSTa residues visible in VN1194 H5 HA complex,[1],only Sia-1 and Gal-2 were visible
NeuAcα2–3Galβ1–4GlcNAcβ1–3GalNAcα-Thr [glycan #21],binding mode of glycan in Sh2 H7 HA,[2],adopts a cis configuration in the Siaα2–3Gal linkage
"O-linked glycopeptide compound 2 (core 1 on peptide FVTIG, no sialic acid)",Kd,[3],> 650 µM
